{
  "source": "ChEMBL document CHEMBL1201862",
  "about": "“PubChem BioAssay data set” (2004)",
  "key": {"[1]": {"assay": "microbe, parasite or virus in culture", "type": "functional", "details": "Mycobacterium tuberculosis"}, "Nonstructural protein 1": {"molecular_target": "Nonstructural protein 1 (Influenza A virus, UniProt Q194T2)", "sequence (Q194T2 whole entry)": "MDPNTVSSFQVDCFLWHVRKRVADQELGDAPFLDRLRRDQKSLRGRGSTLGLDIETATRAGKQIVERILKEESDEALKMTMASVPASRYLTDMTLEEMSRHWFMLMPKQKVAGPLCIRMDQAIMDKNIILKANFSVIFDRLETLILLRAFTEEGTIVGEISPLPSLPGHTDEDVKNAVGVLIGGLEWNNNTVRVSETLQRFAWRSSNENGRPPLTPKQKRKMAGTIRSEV", "type": "functional, Influenza A virus (A/California/07/2009(H1N1))"}, "[2]": {"molecular_target": "T1, High affinity choline transporter 1 (Homo sapiens, UniProt Q9GZV3)", "T1 sequence (Q9GZV3 whole entry)": "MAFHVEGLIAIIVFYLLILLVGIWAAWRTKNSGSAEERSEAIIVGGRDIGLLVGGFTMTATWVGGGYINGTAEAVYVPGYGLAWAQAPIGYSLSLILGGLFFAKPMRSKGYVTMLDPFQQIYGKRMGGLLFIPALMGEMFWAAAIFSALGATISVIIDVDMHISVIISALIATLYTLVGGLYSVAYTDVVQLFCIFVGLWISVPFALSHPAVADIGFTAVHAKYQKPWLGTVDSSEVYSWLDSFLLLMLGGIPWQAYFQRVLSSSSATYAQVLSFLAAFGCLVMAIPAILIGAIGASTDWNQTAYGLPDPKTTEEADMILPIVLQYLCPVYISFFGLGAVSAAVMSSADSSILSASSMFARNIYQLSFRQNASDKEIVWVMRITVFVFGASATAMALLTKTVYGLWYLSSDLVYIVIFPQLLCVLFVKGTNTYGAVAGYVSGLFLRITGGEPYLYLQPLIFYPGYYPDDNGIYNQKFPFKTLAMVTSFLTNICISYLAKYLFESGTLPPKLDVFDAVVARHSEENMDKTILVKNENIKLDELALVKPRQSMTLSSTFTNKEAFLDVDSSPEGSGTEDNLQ", "assay": "human choline transporter blockers, potency – cell-based, 5-point CRC, membrane potential dye, dose response (AID 504840)", "type": "functional"}, "[3]": {"molecular_target": "T2, Short transient receptor potential channel 4 (Mus musculus, UniProt Q9QUQ5)", "T2 sequence (Q9QUQ5 whole entry)": "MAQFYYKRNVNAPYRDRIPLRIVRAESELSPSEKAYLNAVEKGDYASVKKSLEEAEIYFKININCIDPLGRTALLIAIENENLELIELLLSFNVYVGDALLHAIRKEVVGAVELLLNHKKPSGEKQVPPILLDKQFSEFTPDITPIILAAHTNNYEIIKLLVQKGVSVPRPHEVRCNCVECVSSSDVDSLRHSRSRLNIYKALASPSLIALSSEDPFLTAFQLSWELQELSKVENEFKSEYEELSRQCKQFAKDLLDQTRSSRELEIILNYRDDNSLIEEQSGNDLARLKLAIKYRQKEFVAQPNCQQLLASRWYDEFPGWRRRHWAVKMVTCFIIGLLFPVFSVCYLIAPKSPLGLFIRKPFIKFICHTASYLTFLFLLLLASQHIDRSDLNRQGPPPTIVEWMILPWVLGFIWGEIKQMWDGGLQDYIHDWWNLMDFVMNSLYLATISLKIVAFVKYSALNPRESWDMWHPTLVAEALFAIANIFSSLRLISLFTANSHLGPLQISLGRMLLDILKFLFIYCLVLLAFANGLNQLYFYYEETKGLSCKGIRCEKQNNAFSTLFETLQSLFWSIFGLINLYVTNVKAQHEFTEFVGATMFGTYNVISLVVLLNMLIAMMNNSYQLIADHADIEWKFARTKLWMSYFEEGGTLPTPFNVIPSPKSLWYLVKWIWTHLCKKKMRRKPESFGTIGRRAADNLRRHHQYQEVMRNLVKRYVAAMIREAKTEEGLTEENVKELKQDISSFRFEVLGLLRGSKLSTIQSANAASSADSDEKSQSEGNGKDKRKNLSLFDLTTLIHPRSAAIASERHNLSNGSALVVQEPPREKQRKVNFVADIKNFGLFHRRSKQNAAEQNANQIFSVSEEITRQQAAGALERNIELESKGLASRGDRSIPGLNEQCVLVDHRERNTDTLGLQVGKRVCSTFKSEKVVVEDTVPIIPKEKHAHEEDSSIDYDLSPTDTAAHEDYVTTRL", "assay": "calcium entry via TRPC4 opening agents – cell-based, HEK293 TRPC4/mu-opioid, Fluo-4 calcium, dose response (AID 434937)", "type": "functional"}, "Vero": {"system": "Vero", "assay": "cells", "type": "functional", "details": "Chlorocebus sabaeus"}, "[4]": {"assay": "HGIII-sPLA2 enzyme inhibition potency – biochemical, QFRET, IC50, dose response (AID 743457);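 further: green fluorescence rise as the enzyme cleaves BODIPY PC-A2 in liposomes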"}, "[5]": {"molecular_target": "T3, Corticotropin-releasing factor receptor 2/Corticotropin-releasing factor-binding protein (Homo sapiens, UniProt P24387+Q13324)", "T3 sequence (Q13324 whole entry)": "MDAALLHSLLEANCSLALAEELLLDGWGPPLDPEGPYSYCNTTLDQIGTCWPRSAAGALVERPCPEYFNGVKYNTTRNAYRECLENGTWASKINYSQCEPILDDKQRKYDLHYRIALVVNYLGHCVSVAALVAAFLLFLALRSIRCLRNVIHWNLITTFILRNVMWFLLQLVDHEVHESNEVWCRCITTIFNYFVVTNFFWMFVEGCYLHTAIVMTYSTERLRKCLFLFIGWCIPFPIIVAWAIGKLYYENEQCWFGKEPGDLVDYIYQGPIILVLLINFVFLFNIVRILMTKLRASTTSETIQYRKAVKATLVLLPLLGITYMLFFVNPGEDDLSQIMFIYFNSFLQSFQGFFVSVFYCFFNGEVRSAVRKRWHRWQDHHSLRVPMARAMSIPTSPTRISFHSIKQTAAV", "T3 sequence (P24387 whole entry)": "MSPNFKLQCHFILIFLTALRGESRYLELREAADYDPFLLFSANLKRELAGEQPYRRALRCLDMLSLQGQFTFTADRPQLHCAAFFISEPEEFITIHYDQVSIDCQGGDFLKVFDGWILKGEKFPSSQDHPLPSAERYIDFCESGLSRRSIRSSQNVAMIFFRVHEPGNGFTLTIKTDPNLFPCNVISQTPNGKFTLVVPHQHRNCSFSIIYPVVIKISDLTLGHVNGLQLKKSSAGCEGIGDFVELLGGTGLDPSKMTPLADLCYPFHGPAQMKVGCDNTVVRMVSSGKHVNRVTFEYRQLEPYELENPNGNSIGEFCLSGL", "assay": "activators of CRF receptor 2 with binding protein – uHTS hits, confirmation (AID 602473)", "type": "functional", "details": "read-out: EC50_Mean"}, "HEK293 [6]": {"system": "HEK293", "assay": "NOD2 signaling inhibitors in MDP-stimulated cells, cell-based, uHTS, luminescence (AID 2001)", "type": "functional", "details": "Homo sapiens"}, "[7]": {"assay": "Luminescence Cell-Based Dose Retest to Confirm Inhibitors of Cancer Stem Cells. [Related pubchem assays (depositor defined):AID2717, AID2721]", "type": "functional", "details": "Homo sapiens"}, "HEK293 [8]": {"system": "HEK293", "assay": "cells", "type": "functional, cell-based", "details": "Homo sapiens"}, "HEK293 [9]": {"system": "HEK293", "assay": "cells", "type": "functional, cell-based", "details": "Homo sapiens", "remark": "listed apart in the source"}, "HEK293 [10]": {"system": "HEK293", "assay": "inhibition of NOD1-driven NF-kB reporter – cell-based, luminescence, uHTS, primary screen (AID 1578)", "type": "functional", "details": "Homo sapiens"}, "[11]": {"system": "Streptococcus sp. 'group A'", "assay": "Streptococcus pyogenes SK(-)GAS viability under kanamycin – luminescence, BacTiterGlo, confirmation, counter-screen for streptokinase expression inhibitor project, dose response (AID 1900)", "type": "functional, organism-based"}, "Streptokinase A": {"molecular_target": "T4, Streptokinase A (Streptococcus pyogenes serotype M1, UniProt P10520)", "T4 sequence (P10520 whole entry)": "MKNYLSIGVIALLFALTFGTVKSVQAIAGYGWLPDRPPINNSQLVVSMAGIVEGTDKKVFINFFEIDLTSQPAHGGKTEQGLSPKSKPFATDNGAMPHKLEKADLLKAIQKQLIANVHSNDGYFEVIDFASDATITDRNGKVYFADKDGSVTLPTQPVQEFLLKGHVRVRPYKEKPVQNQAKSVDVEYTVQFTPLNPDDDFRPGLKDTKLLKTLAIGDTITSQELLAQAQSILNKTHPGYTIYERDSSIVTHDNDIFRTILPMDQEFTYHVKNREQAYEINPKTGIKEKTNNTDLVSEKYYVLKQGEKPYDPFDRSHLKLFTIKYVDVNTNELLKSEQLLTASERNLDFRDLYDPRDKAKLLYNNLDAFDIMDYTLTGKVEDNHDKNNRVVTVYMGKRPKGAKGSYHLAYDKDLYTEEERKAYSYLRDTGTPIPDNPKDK", "assay": "viability-normalized secreted streptokinase activity reduction – plasminogen activation absorbance, OD405, dose response (AID 1914)", "type": "functional, Streptococcus pyogenes M1 GAS"}, "INS1": {"system": "INS1", "assay": "INS-1E survival protection against cytokine death – cell-based, luminescence, retest, dose response (AID 449756);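 further: cell death triggered by IL-1 beta plus TNF-alpha plus IFN-gamma mixture; protective hits raise ATP signal compared with cytokine alone wells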", "type": "functional", "details": "Rattus norvegicus"}, "Streptococcus": {"system": "Streptococcus", "assay": "GAS UMAA2166 growth inhibition – luminescence, BacTiterGlo, counter-screen for streptokinase expression inhibitor project, dose response (AID 1915)", "type": "functional, organism-based"}, "[12]": {"assay": "Luminescence Cell-Based Dose Response HTS to Identify Inhibitors of 5'UTR Stem-Loop Driven Prion Protein mRNA Translation in H4 Neuroglioblastoma Cells. [Related pubchem assays: 1827 (Project Summary), 1813 (Primary HTS)]", "type": "functional"}, "[13]": {"assay": "HEK-293T viability loss after treatment – luminescence, T-cell screen hits, cytotoxicity control for TCR NF-kB inhibitor project, dose response (AID 489026);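 further: cells exposed to compound about 14 hours before the viability readout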", "type": "functional, cell-based"}, "[14]": {"assay": "luciferase reporter signal suppression in cells – H4 neuroglioma cells, luminescence, dose response (AID 1990)", "type": "functional, cell-based"}, "[15]": {"assay": "alpha-synuclein stem-loop luciferase translation blockers – H4 neuroglioma cells, luminescence, confirmation (AID 1988)", "type": "functional, cell-based"}},
  "note": "Active and inactive are the calls of the source.",
  "data": [
    {"compound": "N#CC(C#N)=c1ccc2c(c1)N1C3=C(CCCC3)CC3CCCCC31N=2", "note": "(stereo unspecified)", "values": [
      {"measurement": "CC50", "setting": "[1]", "value": "29.5 µM (active)"},
      {"measurement": "IC50", "setting": "Nonstructural protein 1", "value": "11.2 µM (active)"},
      {"measurement": "IC50", "setting": "[2]", "value": "11 µM (active)"}
    ]},
    {"compound": "O=C(NNC(=S)NC(=O)c1ccccc1Cl)c1cccc([N+](=O)[O-])c1", "values": [
      {"measurement": "EC50", "setting": "[3]", "value": "5.96 µM (active)"},
      {"measurement": "CC50", "setting": "Vero", "value": "> 25 µM (active)"},
      {"measurement": "IC50", "setting": "[4]", "value": "22.3 µM (inactive)"},
      {"measurement": "EC50", "setting": "[5]", "value": "11.2 µM (active)"}
    ]},
    {"compound": "O=C(Nc1ccc(S(=O)(=O)N2CCOCC2)cc1)c1cc(-c2cc(Cl)ccc2O)n[nH]1", "values": [
      {"measurement": "IC50", "setting": "HEK293 [6]", "value": "6.8 µM (active)"},
      {"measurement": "AC50", "setting": "[7]", "value": "0.962 µM (active)"},
      {"measurement": "IC50", "setting": "HEK293 [8]", "value": "6.05 µM (active)"},
      {"measurement": "IC50", "setting": "HEK293 [9]", "value": "7.45 µM (active)"},
      {"measurement": "CC50", "setting": "Vero", "value": "10.9 µM (active)"},
      {"measurement": "EC50", "setting": "HEK293 [10]", "value": "> 20 µM (inactive)"}
    ]},
    {"compound": "O=C(Nc1ccc([N+](=O)[O-])cc1)Nc1ccc(Cl)cc1F", "values": [
      {"measurement": "EC50", "setting": "[11]", "value": "> 150 µM (not active)"},
      {"measurement": "IC50", "setting": "HEK293 [6]", "value": "3.26 µM (inactive)"},
      {"measurement": "IC50", "setting": "HEK293 [8]", "value": "3.12 µM (active)"},
      {"measurement": "IC50", "setting": "HEK293 [9]", "value": "> 20 µM (inactive)"},
      {"measurement": "EC50", "setting": "Streptokinase A", "value": "> 150 µM (not active)"},
      {"measurement": "EC50", "setting": "HEK293 [10]", "value": "18.7 µM (active)"},
      {"measurement": "AC50", "setting": "INS1", "value": "3.73 µM (active)"},
      {"measurement": "EC50", "setting": "Streptococcus", "value": "> 150 µM (not active)"}
    ]},
    {"compound": "COc1ccccc1NC(=O)C1=C(C)Nc2nc3ccccc3n2C1c1cccs1", "note": "(stereo unspecified)", "values": [
      {"measurement": "EC50", "setting": "[12]", "value": "9.88 µM (active)"},
      {"measurement": "IC50", "setting": "[13]", "value": "> 80 µM (inactive)"},
      {"measurement": "EC50", "setting": "[14]", "value": "7.89 µM (inconclusive)"},
      {"measurement": "EC50", "setting": "[15]", "value": "5.03 µM (active)"}
    ]},
    {"compound": "Cc1ccc(C(=O)CSc2nnc(-c3ccco3)n2C)cc1", "values": [
      {"measurement": "IC50", "setting": "[2]", "value": "9.62 µM (active)"}
    ]}
  ]
}
